Common to all, as to experiment: MTT test of cell viability, 72 h treatment
Holding throughout (assay type): cell-based
On the technique in general: Tetrazolium dyes change colour on reduction, which living cells bring about.

In assay [1] the test system is NCI-H460 human non-small cell lung carcinoma cell line. The conditions noted are these: for IC50: MTT, 72 h; for Selectivity Index: ratio IC50 MRC-5 (2,000 cells per well) / IC50 NCI-H460. The procedure:
(§1) The MTT test was used to evaluate the effect of the compounds on cell viability. The test relies on the reduction of tetrazolium salt (MTT) to formazan, which is catalyzed by the mitochondrial enzyme succinate dehydrogenase. The activity of succinate dehydrogenase, which is indicative of mitochondrial respiration, is taken as an indirect measure of the metabolic activity of the cell, and thus its viability. The MTT-formazan produced is a purple-colored product, whose absorbance is measured at a wavelength of 570 nm. • a) To determine the inhibition of cell growth by SC, different cell lines were exposed to increasing concentrations of SC (5, 10, 25, 50, and 100 μM). The cells were seeded in 96-well microtiter plates at a density of 2,000 cells per well for NCI-H460, NCI-H460/R, DLD1 and DLD1-TxR, and 4,000 cells per well for MRC-5, U87, U87-TxR, and U251 in 100 μL of the appropriate medium. Control cells that received no treatment were also seeded at the same time. After 24 h for adaptation, the cells were treated with various concentrations of SC. After 72 h of treatment, 0.2 mg/ml MTT was added to each well in the appropriate cell culture medium. After 4 h of incubation at 37° C. with 5% CO2, the medium was removed, and 100 μL of DMSO were added to each well, to dissolve the formazan. The absorbance of the samples was measured at 570 nm using a Multiskan Sky Microplate spectrophotometer (ThermoFisher Scientific, USA). The results were analyzed using GraphPad Prism 8.0.2. software, and the IC50 values were determined by non-linear regression. • b) To test the interaction between SC and DOX in terms of cytotoxicity in different cell lines, cells were seeded in 96-well microtiter plates at a density of 2,000 cells per well for NCI-H460, NCI-H460/R, DLD1 and DLD1-TxR, and 4,000 cells per well for MRC-5, U87, U87-TxR, and U251 in 100 μl of the appropriate medium. SC (10 and 20 μM) was combined with increasing concentrations of DOX (20, 50, 100, 200, and 500 nM). The cells were treated with the simultaneous combinations for 72 h. After this period, 0.2 mg/ml MTT was added to each well, followed by 4 hours of incubation at 37° C. with 5% CO2. The medium was then removed, and DMSO was added to each well to dissolve the formazan.
(§2) The analysis was carried out using GraphPad Prism software version 8.0.2 to determine the nature of the interaction, namely synergistic, antagonistic, or additive, between compounds. This was done using the computer software CalcuSyn, which is based on the combination index method. The method takes into account the concentration of compounds, the individual effect of each compound, as well as the effect of two compounds in combination. The values of the combination indices (CI) describe the nature of the interaction: Cl<0.9 indicates synergism, Cl>1.1 indicates antagonism, and Cl=0.9-1.1 indicates an additive effect. • c) To compare the resistance and selectivity profiles among SC, DOX, CON1, and CON2, human glioblastoma cell lines U87, U87-TxR, and MRC-5 were seeded at a density of 4,000 cells per well in 100 μL of the appropriate medium. In contrast, NCI-H460, NCI-H460/R, and MRC-5 were seeded at a density of 2,000 cells per well in 100 μL of the proper medium. The effect of SC derivatives LIG1 and LIG2 was also examined. The range of concentrations differed among the cell lines and the compounds. For LIG1 and LIG2, the range of concentrations for all cell lines was 50, 100, 200, 300, and 400 μM, while the same range was used for the MRC-5 in the case of SC, CON1, and CON2. DOX concentrations ranged 0.1, 0.25, 0.5, 1, and 2.5 μM for U87 and NCI-H460, and 0.25, 0.5, 1, 2.5, and 5 μM for U87-TxR, NCI-H460/R, and MRC-5. […] concentrations used for SC, CON1, and CON2 treatments varied in the range 1, 2.5, 5, 10, 25, 50, and 100 μM. The treatment lasted 72 h. After the treatment period, 0.2 mg/ml MTT in the appropriate cell culture medium was added to each well. […]

For assay [2], the system named is U87 human glioblastoma cell line. Conditions: for IC50: MTT, 72 h; for Selectivity Index: ratio IC50 MRC-5 (4,000 cells per well) / IC50 U87. As to the method: as §1, §2
Assay [3] relates to MRC-5 human lung fibroblast cell line. The procedure:
as §1
(§3) The absorbance of the samples was measured at 570 nm using a Multiskan Sky Microplate spectrophotometer.
as §2, with “h.” for “h. After the treatment period, 0.2 mg/ml MTT in the appropriate cell culture medium was added to each well.”

The test system of assay [4] is NCI-H460/R resistant human non-small cell lung carcinoma cell line. The conditions noted are these: for IC50: MTT, 72 h, MDR line; for Relative Resistance: ratio IC50 NCI-H460/R / IC50 NCI-H460. The procedure: as §1, §3
as §2, with “h.” for “h. After the treatment period, 0.2 mg/ml MTT in the appropriate cell culture medium was added to each well.”

Assay [5] relates to U87-TxR resistant human glioblastoma cell line. The conditions noted are these: for IC50: MTT, 72 h, MDR line; for Relative Resistance: ratio IC50 U87-TxR / IC50 U87. As to the method: as §1, §3
as §2, with “h.” for “h. After the treatment period, 0.2 mg/ml MTT in the appropriate cell culture medium was added to each well.”

The mark [6] stands for this setting: Homo sapiens, NCI-H460, DOX only.

What is called IC50 is the concentration needed to halve the response being measured. For the molecule `COc1cccc2c1C(=O)c1c(O)c3c(c(O)c1C2=O)C[C@@](O)(C(=O)CO)C[C@@H]3O[C@H]1C[C@H](N)[C@H](O)[C@H](C)O1` [DOX, doxorubicin], the IC50 was 0.128 µM in assay [1] (setting [6]); 0.1 µM in assay [2] (Homo sapiens, DOX only); 0.588 µM in assay [3] (Homo sapiens, MRC5, 72 h, 2,000 cells per well (non-small cell carcinoma experiments), DOX only); 0.295 µM in assay [3] (Homo sapiens, MRC5, 72 h, 4,000 cells per well (glioblastoma experiments), DOX only); 2.5 µM in assay [4] (setting [6]); 1.32 µM in assay [5] (Homo sapiens, U87-TxR, DOX only). In addition, the “Selectivity Index” value in assay [1] is given as 4.6; in assay [2], 2.9. Further, the entries for the “Relative Resistance” value in assay [4] and in assay [5] were 19.6 and 13.2, respectively.

As for `C=C[C@](C)(O)CC[C@@H]1[C@@]2(C)CCCC(C)(C)[C@@H]2CC[C@@]1(C)O` [SC, sclareol], the half-maximal inhibitory concentration (IC50) is 40.3 µM in assay [1] (Homo sapiens, NCI-H460); 51.6 µM in assay [2] (Homo sapiens); 64.1 µM in assay [3] (Homo sapiens, MRC5, 72 h, 2,000 cells per well (non-small cell carcinoma experiments)); 75.9 µM in assay [3] (Homo sapiens, MRC5, 72 h, 4,000 cells per well (glioblastoma experiments)); 47.4 µM in assay [4] (Homo sapiens, NCI-H460); 39.2 µM in assay [5] (Homo sapiens, U87-TxR). Also, the “Selectivity Index” value in assay [1] was 1.6; in assay [2], 1.5. In addition, the “Relative Resistance” value in assay [4] amounted to 1.2; in assay [5], 0.8.

For the molecule “N1-((25,3S,4S,6R)-3-hydroxy-2-methyl-6-(((1S,3S)-3,5,12-trihydroxy-3-(2-hydroxyacetyl)-10-methoxy-6,11-dioxo-1,2,3,4,6,11-hexahydrotetracen-1-yl)oxy)tetrahydro-2H-pyran-4-yl)-N4-(3-((4-((R,E)-3-hydroxy-5-((1R,2R,4aS,8aS)-2-hydroxy-2,5,5,8a-tetramethyldecahydronaphthalen-1-yl)-3-methylpent-1-en-1-yl)benzyl)amino)propyl) succinamide [CON1]”, the IC50 in assay [1] was determined as 9.8 µM; in assay [2], 8.8 µM; in assay [3] (2,000 cells per well (non-small cell carcinoma experiments)) it was 72.6 µM; in assay [3] (4,000 cells per well (glioblastoma experiments)), 137 µM; in assay [4] it was 38.4 µM; in assay [5], 28.7 µM. Besides, the results for the “Selectivity Index” value in assay [1] and in assay [2] were 7.4 and 15.6, respectively. The “Relative Resistance” value in assay [4] is on record as 3.9; in assay [5], 3.3.

These data come from patent publication US20260174860A1, “HYBRID COMPOUNDS OF SCLAREOL AND DOXORUBICIN, THEIR SYNTHESIS AND APPLICATION” (INSTITUTE FOR BIOLOGICAL RESEARCH "SINISA STANKOVIC" - …, priority 2023, published 2026).
